According to patent US20130039852A1, “METHODS OF TARGETING CELLS FOR DIAGNOSIS AND THERAPY” (NORTHEASTERN UNIVERSITY, priority 2008, published 2013):
In brackets after ≈: the same amount, converted by molar mass.

How the values were obtained:
anti-Bombesin antibody = test: ELISA for bispecificity using anti-Bombesin capture antibody and DTPA-HRP; format: binding; settings: 1 μg/ml, captured by anti-Bombesin antibody
Procedure: Intact 6C31H3 anti-DTPA antibody was modified with 100× molar excess iminothiolane. Bombesin was modified with 24× molar excess N-hydroxy-succinimide ester of bromoacetic acid (as described in Varvarigou et al., Can. Biother. Radiopharm. 19:219-229 (2004); and Bernatowicz et al., Anal. Biochem. 155:95-102 (1986)). […] The antibody activity and Bombesin concentrations were assessed by ELISA using either DTPA-BSA or anti-Bombesin antibody and compared to standard curves. Specifically, the Bombesin concentration of serial dilutions of Bom-BiSpCx starting at 1 μg/ml was determined by ELISA using Bombesin (1 μg/ml) and 6C31H3 antibody (1 μg/ml) as controls. Bombesin of the Bom-BiSpCx (1 μg/ml) was captured by an anti-Bombesin antibody, resulting in a positive reaction with DTPA-HRP (which is specific for the […] antibody of the Bom-BiSpCx).

[1] = test system: H9C2 embryonic rat cardiocytes; test: IC50 in H9C2 embryonic cardiocytes, Trypan Blue exclusion; format: cell-based; settings: 24 hr
Procedure: H9C2 embryonic rat cardiocytes cultured in 10% Fetal Clone DMEM (F-DMEM) at 37° C. in 25 ml sterile culture flasks until 90% confluent in triplicate were dissociated by Trypsin digestion. The cells were washed in F-DMEM. Aliquots of 40,000 H9C2 cells in 1 ml F-DMEM were delivered to each well of a 6 well culture plate. After incubation for 24 hr, the culture medium was removed and fresh medium containing 2.5 μg/ml, 5 μg/ml, 10 μg/ml, 15 μg/ml, and 30 μg/ml of Dox-DPG or free Dox were added and incubated at 37° C. for 24 hr. Cell death was assessed by Trypan Blue exclusion test.

PC-3 cancer cells = test: In vitro therapeutic efficacy in PC-3 cell cultures; format: cell-based, human; settings: 10 μg Bom-BiSpCx 24 hr then 10 μg/ml Dox-DPG, or 10 μg/ml free Dox; Trypan blue
Procedure: PC-3 cancer cells were grown in 10% fetal clone-DMEM until they reached about 80% confluence. The cells were then harvested by trypsin digestion and re-plated in 6 well culture plates at 40,000 cells per well. After attaining 70% confluency, the medium was replaced with or without 10 μg of Bom-BiSpCx (prepared as described in Example 3) in triplicates to quadruplicates. After 24 hr of incubation at 37° C. in 5% CO2, the media was changed to media containing 10 μg/ml of free Dox or Dox-DPG (prepared as described in Example 2). The cells were further incubated at 37° C. for 0-3 hr, 3-12 hr, or 12-24 hr, at which time the cells in each well were collected and the number of live and dead cells determined by Trypan blue exclusion test in a Hemocytometer. Negative control cells were treated with monospecific 2C5 antibody, […] antibody, Bombesin, or culture media alone. Positive control cells were treated with 10 μg/ml of free Dox. Each assay was repeated at least 3 times in triplicate or quadruplicate.

[2] = test system: BT-20 human mammary tumor cells; test: In vitro assay for tumorotoxicity in BT-20 human mammary tumor cells; format: cell-based; settings: BT-20 cells, 10 μg/ml, 3 hrs; compared with Dox-DPG and Dox-DPG-BiSpAb
Procedure: BT-20 human mammary tumor cells were grown in 10% Fetal Clone DEME. When the cells reached about 80% confluence, the cells were harvested by trypsin digestion and replated in […] culture plates at 400,000 cells per well. After 24 hrs, the culture media was removed and in one set of wells was replaced with media containing 10 μg/ml of 2C5-6C31H3 BiSpAb (prepared as described in Example 1). In two other sets, the media was replaced with media lacking 2C5-6C31H3 BiSpAb. Each set was prepared in triplicate. After 24 hrs of incubation, the medium was removed and washed 3× with medium lacking antibody. Medium containing 10 μg/ml of free Dox was then added to a medium-only set of wells, and media containing 10 μg/ml of Dox-DPG was added to one set with and one set without 2C5-6C31H3 BiSpAb. The cultures were incubated for either 3 hrs, 12 hrs, or 24 hrs, at which times the cells in the media were collected and viability was determined by counting cells with Tryptan Blue exclusion criteria in a hemocytometer.

Structure (SMILES) | Reaction with DTPA-HRP, O.D. 490 nm (anti-Bombesin antibody) | IC50 (cardiotoxicity) [1] [µg/mL] | Death of PC-3 cancer cells (PC-3 cancer cells) [%] | Tumor cell killing, early stage of incubation [2]
O=C(O)CN(CCN(CC(=O)O)CC(=O)O)CCN(CC(=O)O)CC(=O)O [DTPA, diethylene triaminepentaacetic acid] | 0.0007±0.0025 | – | – | –
COc1cccc2c1C(=O)c1c(O)c3c(c(O)c1C2=O)C[C@@](O)(C(=O)CO)C[C@@H]3O[C@H]1C[C@H](N)[C@H](O)[C@H](C)O1 [doxorubicin] | – | 1.02 (≈ 1.88 µM) | 68.6 | more effective in killing tumor cells
